Assay results as given in patent publication US20100021519A1, “Compositions and Methods for Treating or Preventing Diseases of Body Passageways” (priority 2006, published 2010).
Read-outs that look alike come from different tables or passages of the source.

Experiments:
[1] = Pilot in situ intra-tracheal infusion of THX-polymer formulation in rats immediately after termination; assay type: in vivo, rat; conditions: for THX tissue level, trachea: in situ infusion over 30 mins, 8 mg/kg, 200 μl, tissue harvested after 2 hours
Experimental: A pilot study of in situ intra-tracheal infusion was performed to estimate tracheal and lung tissue levels after in situ intra-tracheal infusion of THX-polymer formulation.
Method: Two rats (immediately after termination) were intra-tracheally infused over 30 mins with a THX-polymer formulation. The dose was 8 mg/kg and volume was 200 μl. After infusion these were wrapped for 2 hours in a warm heating pad. Tracheo-bronchial and lung tissue were harvested after wiping the lumen area of the tracheo-bronchial lumen with a tissue and spatula (to take off any adsorbed drug) at the end of 2 hours. Samples were frozen at −80 C until processed and analyzed by LC-MS. Sample extraction was conducted at AraVasc Inc. The processed samples were analyzed at Alta Analytical laboratories by LC-MS.

liver and lung cancer = conditions: preliminary reports, cited from earlier work
[2] = for THX level, plasma / THX tissue level, lung: rat; for THX level, plasma: intratracheal 3 × 4 mg/kg; for THX tissue level, lung: intratracheal THX-polymer formulation 3 × 4 mg/kg, LC-MS
Method: A screening formulation of thalidomide (THX) and polymer was used for the studies and the rat was chosen a preclinical model.
A pilot pharmacokinetic (PK) study was performed to estimate tracheo-bronchial and lung tissue levels after intra-tracheal application of THX-polymer formulation.
Method: A 10 mg/ml THX-polymer formulation was delivered (to anesthetized rats) at a dose of 4 mg/Kg at a volume of 100 μl dosed 3 times in 4 rats at 30 min intervals. The animals were anesthetized while dosing. […] Blood, tracheo-bronchial and lung tissue was sampled at 20 and 40 min past the third dose. Samples were frozen until processed for LC-MS analysis. […] Only the plasma and lung tissue were analyzed by LC-MS.
Method: A preliminary screening LCMS method was developed for quantitating THX in tissues and plasma. […] The equipment used was a SCIEX PE 3000.
Tissue and Plasma Extraction: The tissue was ground (glass-glass homogenizer) and extracted with 70:30 0.1% formic acid in acetonitrile and 0.1% formic acid in water at a 1:3 ratio of tissue to solvent. Plasma is extracted with the same solvent as the tissue at a 1:2 ratio of plasma to solvent. The supernatant extract was subject to LCMS analysis.

[3] = clinical trials in liver and lung cancer
[4] = rats, intra-tracheal THX-polymer formulation, 12 mg/kg dose (100 μl dosed 3 times)

Q: For `O=C1CCC(N2C(=O)c3ccccc3C2=O)C(=O)N1` (racemic) [THX, 2-(2,6-dioxo-3-piperidinyl)-1H-isoindole-1,3(2H)-dione], which “THX tissue level, trachea” value ([1]; Rat 1) is on record?
A: 211.21 μg/100 mg

Q: And the “THX tissue level, trachea” value ([1]; Rat 2)?
A: 290.36 μg/100 mg

Q: What about the “THX levels in tracheo-bronchial and lung tissue (in words)” value ([1]; rats, in situ intra-tracheal infusion (0.5 hr), 8 mg/kg dose) of the same compound?
A: High levels

Q: What about the Disease control rates (liver and lung cancer; [3]) of the same compound?
A: 8%-57%

Q: What about the Response rates (liver and lung cancer; [3]) of the same compound?
A: 4%-10%

Q: What about the “Toxicity in clinical trials (in words)” value (liver and lung cancer) of the same compound?
A: associated with systemic toxicities

Q: What about the “THX level, plasma” value ([2]; 100 μl, 20 mins post 3rd dose, unit of the table head) of the same compound?
A: 0.19 ng/mL

Q: What about the “THX level, plasma” value ([2]; 100 μl, 40 mins post 3rd dose, unit of the table head) of the same compound?
A: 0.44 ng/mL

Q: And the “THX level, plasma” value ([2]; 20 mins post 3rd dose, unit of the text)?
A: 190 ng/mL

Q: What about the “THX level, plasma” value ([2]; 40 mins post 3rd dose, unit of the text) of the same compound?
A: 440 ng/mL

Q: And the “THX tissue level, lung” value ([2]; 100 μl, 20 mins post 3rd dose)?
A: 21.80 μg/100 mg

Q: What about the “THX tissue level, lung” value ([2]; 100 μl, 40 mins post 3rd dose) of the same compound?
A: 16.81 μg/100 mg

Q: And the “Distribution/diffusion into the lung tissue and vasculature (in words)” value ([2]; rats, intra-tracheal THX-polymer formulation, 12 mg/kg dose)?
A: good distribution/diffusion into the lung tissue and vasculature

Q: And the “THX levels in lung tissue (in words)” value [2, 4]?
A: High levels

Q: And the “THX levels in plasma (in words)” value [2, 4]?
A: low levels
